Experimental data: paper PMC10095193, “Myokine Musclin Is Critical for Exercise-Induced Cardiac Conditioning” (International Journal of Molecular Sciences, 2023)
Residues, ends and D or L forms follow the SMILES beside them.

Assay: Synthetic musclin peptide plasma elimination half-life and volume of distribution (NMR of plasma after jugular vein injection)
Format: in vivo, mouse
Description: The musclin [^13C,^15N-A26-V27]-labeled peptide sequence used was as follows: […], corresponding to amino acids 80–112; GenBank accession no. AAS87598.1 (Bio-synthesis, Inc. Lewisville, TX, USA). A peptide was synthesized with 98% purity, counter-ion exchange (TFA to Cl), and pH adjustment (Bio-synthesis, Inc. Lewisville, TX, USA).
For infusion, 1.7 mg of the chemically synthesized [^13C,^15N-A26-V27]-labeled musclin peptide was dissolved in 300 µL of PBS. This musclin solution was injected into the jugular vein. A 100 µL blood sample was then drawn from the carotid artery at 1, 3, 5, 7, 10, and 15 min after the peptide infusion. Blood was mixed with 5 µL of 10% NaEDTA and 1 µL of peptidase inhibitor cocktail (Sigma, St. Louis, MI, USA) and kept on ice, then centrifuged at 4 °C for 45 min at 14,000 rpm. Plasma was removed and stored at −80 °C for NMR studies.
All NMR spectra were acquired at 5 °C on a Bruker Avance II 800 MHz NMR spectrometer equipped with a TCI cryoprobe. 100 µL of plasma (see above) was added 150 µL NMR buffer containing 50 mM sodium phosphate, pH 7.1 with a final volume of 250 µL in 8.5% D2O/91.5% H2O. This sample was then transferred to a Shigemi NMR tube for NMR studies. One-dimensional (1D) ^1H, two-dimensional (2D) ^15N/^1H-heteronuclear single-quantum correlation (HSQC), 2D ^13C/^1H-HSQC with constant time experiment (HSQC-CT), and 2D ^15N/^1H-slice of the three-dimensional (3D) HNCO experiment were acquired for each blood sample drawn at different times after peptide infusion. The collected NMR data were processed using NMRPipe and analyzed using NMRView. The musclin peptide concentration present in these blood samples was calibrated by using a known amount of chemically synthesized [^13C,^15N-A26-V27]-labeled musclin peptide. The peak intensity of these acquired NMR spectra was measured and fitted to the equation for half-life in exponential decay using GraphPad Prism (GraphPad Software version 9.4.1).

With CC(C)C[C@H](NC(=O)[C@H](CCCNC(=N)N)NC(=O)[C@H](CC(=O)O)NC(=O)[C@H](CC(C)C)NC(=O)[C@@H]1CCCN1C(=O)[C@H](CO)NC(=O)CNC(=O)[C@H](Cc1ccccc1)NC(=O)CNC(=O)[C@H](CO)NC(=O)[C@H](Cc1ccccc1)NC(=O)[C@@H](N)CO)C(=O)N[C@@H](CO)C(=O)N[C@@H](C)C(=O)NCC(=O)N[C@@H](CO)C(=O)N[C@H](C(=O)N[C@@H](CCC(=O)O)C(=O)N[C@@H](Cc1c[nH]cn1)C(=O)N[C@@H](CCCNC(=N)N)C(=O)NCC(=O)N[C@@H](CCCCN)C(=O)N[C@@H](CCC(N)=O)C(=O)N[C@@H](CCCNC(=N)N)C(=O)N[C@@H](CCCCN)C(=O)N[C@@H](C)C(=O)N[C@H](C(=O)N[C@@H](CC(=O)O)C(=O)N[C@@H](Cc1c[nH]cn1)C(=O)N[C@@H](CO)C(=O)N[C@@H](CCCCN)C(=O)N[C@@H](CCCCN)C(=O)N[C@@H](CCCNC(=N)N)C(=O)O)C(C)C)C(C)C (H-SFSGFGSPLDRLSAGSVEHRGKQRKAVDHSKKR-OH; N-terminus and C-terminus assumed) the “Cl, clearance = Ke × Vd” value (calculated for a mouse of 27 g) was 1.71 mL/min, the C0 (in vivo, iv, mouse, 1.7 mg i.v. (jugular vein), NMR calibrated with known amount of labeled peptide, read-out: initial plasma concentration) was 36 µM and the half-life (in vivo, iv, mouse, 1.7 mg in 300 µL PBS injected into jugular vein, carotid artery blood at 1, 3, 5, 7, 10, 15 min, plasma NMR at 5 °C, HNCO (2D) peak intensities fitted to exponential decay, read-out: plasma elimination half-life (t ½)) was 4.6 min. The “volume of distribution (Vd) per g body weight” value (mouse of 31 g, Vd = administered dose/initial concentration, 1.7 mg i.v. (jugular vein)) was 0.419 ml/g of BW, the “Ke, elimination rate = 0.693/T1/2” value (mouse, i.v. (jugular vein)) was 0.151 min⁻¹ and the Vd (mouse, in vivo, iv, for mice of 31 g, 1.7 mg/0.131 mg/mL) was 0.013 L.
